Patent US20120184728A1, “Compound Amycolose Derivative, Method for Producing the Same, and Use of the Same” (priority 2009, published 2012)
Entries after “also recorded” stand apart in the source; their conditions may differ.

tested on: Human prostate stromal cells PrSC; assay: Cell growth suppressive activity (MTT, Test Example 1); format: cell-based; settings: 0.024 to 100 μg/mL, 3 days culture, MTT absorbance at 570 nm, result in words
Protocol: Human prostate stromal cells PrSC (product of Bio Whittaker) were added to DMEM (product of NISSUI PHARMACEUTICAL CO., LTD.) containing 10% by mass FBS (fetal bovine serum) (product of ICN Biomedicals) to prepare a cell suspension having a concentration of 5×10^4 cells/mL. The cell suspension was placed in a 96-well plate in an amount of 0.1 mL per well. Each of the amycolose derivatives (compounds 1, 2 and 3) was added to the wells at a final concentration of 0.024 μg/mL, 0.098 μg/mL, 0.391 μg/mL, 1.563 μg/mL, 6.25 μg/mL, 25 μg/mL or 100 μg/mL, followed by culturing in an incubator for 3 days at 37° C. and 5% CO2. Then, MTT (3-[4,5-dimethylthiazol-2-yl]-2,5-diphenyltetrazolium bromide) (product of Sigma Co.), which had been adjusted with a phosphate buffer to have a concentration of 5 mg/mL, was added to each well in an amount of 10 μL, followed by culturing in an incubator for 4 hours at 37° C. and 5% CO2. Subsequently, 10 μL of 20% by mass SDS (sodium dodecylsulphate) prepared with 10 mM hydrochloric acid was added to each well, and the plate was left to stand still overnight at 37° C. to dissolve formazan formed from MTT. Thereafter, the plate was measured for absorbance at 570 nm with an absorptiometer (hereinafter may be referred to as “amycolose derivative-added sample's absorbance”). Regarding as 100% the absorbance measured when no amycolose derivative was added (hereinafter may be referred to as “control absorbance”), the cell growth rate in each of the amycolose derivatives (compounds 1, 2 and 3) at the above concentrations was calculated using the following equation (1).
Cell growth rate (%)=amycolose derivative-added sample's absorbance/control absorbance×100 Equation (1)

Row | SMILES | cell growth suppressive activity (cell growth rate, FIG. 5)
1 | Cc1[nH]c(C(=O)N[C@@H](C)[C@]2(O)CC(O)O[C@H](C)[C@H]2O)c(Cl)c1Cl (stereo partly drawn) [compound 1] | exhibit cell growth suppressive activity; also recorded: remarkable cell growth suppressive activity
2 | CO[C@H]1C[C@@](O)([C@H](C)NC(=O)c2[nH]c(C)c(Cl)c2Cl)[C@H](O)[C@@H](C)O1 [compound 2] | exhibit cell growth suppressive activity
3 | CO[C@@H]1C[C@@](O)([C@H](C)NC(=O)c2[nH]c(C)c(Cl)c2Cl)[C@H](O)[C@@H](C)O1 [compound 3] | exhibit cell growth suppressive activity
